Reference: US20100210667A1, “IMIDAZO [1, 2-C] PYRIMIDIN-2-YLMETHYLPIPERIDINES AS OREXIN RECEPTOR ANTAGONISTS” (priority 2007, published 2010)
Ends that are not written are not given here.

target: T1, human cloned orexin-1 receptor (alanine at position 280) (Homo sapiens, UniProt O43613); assay: Antagonist affinity at human orexin-1 receptor using FLIPR ([Ca2+]i, CHO cells); format: cell-based; settings: hOrexin A at EC80, IC50 converted to functional pKi by modified Cheng-Prusoff, read-out: fpKi at the human cloned orexin-1 receptor
T1 construct: expressed in transfected cells
T1 sequence (O43613 1-425): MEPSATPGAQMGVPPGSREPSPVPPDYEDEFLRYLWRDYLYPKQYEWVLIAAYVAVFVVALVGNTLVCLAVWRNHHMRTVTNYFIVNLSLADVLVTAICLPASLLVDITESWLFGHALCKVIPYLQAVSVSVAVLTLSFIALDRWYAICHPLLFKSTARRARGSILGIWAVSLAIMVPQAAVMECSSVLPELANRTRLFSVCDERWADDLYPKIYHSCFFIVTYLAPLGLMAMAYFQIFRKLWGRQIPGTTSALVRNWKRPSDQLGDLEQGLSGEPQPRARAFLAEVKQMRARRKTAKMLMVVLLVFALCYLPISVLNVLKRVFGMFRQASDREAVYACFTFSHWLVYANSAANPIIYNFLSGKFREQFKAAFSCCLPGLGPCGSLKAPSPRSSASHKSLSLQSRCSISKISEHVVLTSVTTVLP
Excerpt: Determination of ANTAGONIST AFFINITY at Human Orexin-1 and 2 Receptors Using FLIPR
Adherent Chinese Hamster Ovary (CHO) cells, stably expressing the recombinant human Orexin-1 or human Orexin-2 receptors or Rat Basophilic Leukaemia Cells (RBL) stably expressing recombinant rat Orexin-1 or rat Orexin-2 receptors were maintained in culture in Alpha Minimum Essential Medium (Gibco/Invitrogen, cat. no.; 22571-020), supplemented with 10% decomplemented foetal bovine serum (Life Technologies, cat. no. 10106-078) and 400 μg/mL Geneticin G418 (Calbiochem, cat. no.345810). Cells were grown as monolayers under 95%:5% air:CO2 at 37° C.
The sequences of the human orexin 1, human orexin 2, rat orexin 1 and rat orexin 2 receptors used in this example were as published in Sakurai, T. et al (1998) Cell, 92 pp 573 to 585, with the exception that the human orexin 1 receptor sequence used had the amino acid residue alanine at position 280 and not glycine as reported in Sakurai et al.
Cells were seeded into black clear-bottom 384-well plates (density of 20,000 cells per well) in culture medium as described above and maintained overnight (95%:5% air:CO2 at 37° C.). On the day of the experiment, culture medium were discarded and the cells washed three times with standard buffer (NaCl, 145 mM; KCl, 5 mM; HEPES, 20 mM; Glucose, 5.5 mM; MgCl2, 1 mM; CaCl2, 2 mM) added with Probenecid 2.5 mM. The plates were then incubated at 37° C. for 60 minutes in the dark with 1 μM FLUO-4AM dye to allow cell uptake of the FLUO-4AM, which is subsequently converted by intracellular esterases to FLUO-4, which is unable to leave the cells. After incubation, cells were washed three times with standard buffer to remove extracellular dye and 30 μL of buffer were left in each well after washing.
Compounds of the invention were tested in a final assay concentration range from 1.66×10^−5M to 1.58×10^−11M. Compounds of the invention were dissolved in dimethylsulfoxide (DMSO) at a stock concentration of 10 mM. These stock solutions were serially diluted with DMSO and 1 μL of each dilution was transferred to a 384 well compound plate. Immediately before introducing compound to the cells, buffer solution (50 μl/well) was added to this plate. To allow agonist stimulation of the cells, a stock plate containing a solution of human orexin A (hOrexin A) was diluted with buffer to final concentration just before use. This final concentration of hOrexin A was equivalent to the calculated EC80 for hOrexinA agonist potency in this test system. This value was obtained by testing hOrexinA in concentration response curve (at least 16 replicates) the same day of the experiment.
The loaded cells were then incubated for 10min at 37° C. with test compound. The plates were then placed into a FLIPRTM (Molecular Devices, UK) to monitor cell fluorescence (λex=488 nm, λEM=540 nm) (Sullivan E, Tucker E M, Dale I L. Measurement of [Ca^2+]i, using the fluometric imaging plate reader (FLIPR). In: Lambert D G (ed.), Calcium Signaling Protocols. New Jersey: Humana Press, 1999, 125-136). A baseline fluorescence reading was taken over a 5 to 10 second period, and then 10 μL of EC80 hOrexinA solution was added. The fluorescence was then read over a 4-5 minute period.
Functional responses using FLIPR were measured as peak fluorescence intensity minus basal fluorescence and expressed as a percentage of a non-inhibited Orexin-A-induced response on the same plate. […]

Molecule	Ki
Cc1nc(C(=O)N2CCCC[C@H]2Cc2cn3cnc(Cl)c(C)c3n2)c(-c2ccccc2)s1 [Example 1, 7-chloro-8-methyl-2-({2S)-1-[(2-methyl-5-phenyl-1,3-thiazol-4-ylcarbonyl]-2-piperidinyl}methyl)imidazo[1,2-c]pyrimidine]	0.631 to 3.98 nM
Cc1nc(C(=O)N2CCCC[C@H]2Cc2cn3cncc(C)c3n2)c(-c2ccccc2)s1 [Example 2]	0.631 to 3.98 nM
COc1ncn2cc(C[C@@H]3CCCCN3C(=O)c3nc(C)sc3-c3ccccc3)nc2c1C [Example 3, 8-methyl-7-(methyloxy)-2-({(2-S)-1-[(2-methyl-5-phenyl-1,3-thiazol-4-yl)carbonyl]-2-piperidinyl}methyl)imidazo[1,2-c]pyrimidine]	0.631 to 3.98 nM
Cc1nc(C(=O)N2CCCC[C@H]2Cc2cn3cnc(C)c(Cl)c3n2)c(-c2ccccc2)s1 [Example 4, 8-chloro-7-methyl-2-({(2S)-1-[(2-methyl-5-phenyl-1,3-thiazol-4-yl)carbonyl]-2-piperidinyl}methyl)imidazo[1,2-c]pyrimidine]	0.631 to 3.98 nM
Cc1nc(C(=O)N2CCCC[C@H]2Cc2cn3cnc(C)c(C)c3n2)c(-c2ccccc2)s1 [Example 5, 7,8-dimethyl-2-({(2S)-1-[(2-methyl-5-phenyl-1,3-thiazol-4-yl)carbonyl]-2-piperidinyl}methyl)imidazo[1,2-c]pyrimidine]	0.631 to 3.98 nM

system: food intake; assay: not given; settings: central administration, freely-feeding rats, 4 hour time period; cited from earlier work

Molecule	increase of food intake over control rats receiving vehicle
orexin-A: polypeptide ligand for the orexin-1 receptor, an agonist of the orexin receptors (QPLPDCCRQKTCSCRLYELLHGAGNHAAGILTL; ends and bridges not checked; cysteine pairing not given here; UniProt O43612 34-66, looked up)	approximately four-fold
